Test system: trigeminal neurons that innervate the dural vasculature
Assay: in vivo electrophysiological recordings from single unit dural-responsive trigeminal neurons (preclinical model of migraine)
Conditions: rat; for normal cutaneous facial noxious and innocuous somatosensory responses: same neurons, extracranial somatosensory processing; for ongoing neuronal firing of central trigeminal neurons / response to pain-producing stimulation of the dura mater of central trigeminal neurons: intravenous administration, P<0.05 vs. baseline; for ongoing neuronal firing of central trigeminal neurons: FIGS. 1A & 1E; for response to pain-producing stimulation of the dura mater of central trigeminal neurons: FIGS. 1B & 1F
Text: FIGS. 1A-1H depict a preclinical model of migraine manipulates the pain responsive sensory neurons that innervate the dura mater and its associated blood vessels. The cell bodies of these sensory neurons reside in the trigeminal ganglia. Measuring dural-responsive trigeminal neuronal responses in animals has proven to be extremely predictive of therapeutic efficacy for abortive migraine treatments, such as triptans, and it also translates to migraine preventives. Here we show in vivo electrophysiological recordings in a rat from single unit trigeminal neurons that innervate the dural vasculature. […] Intravenous administration of the migraine abortive, naratriptan (FIGS. 1A-1D) and the migraine preventive, amitriptyline (FIGS. 1E-1H), inhibited ongoing neuronal firing (FIGS. 1A & 1E) and the response to pain-producing stimulation of the dura mater (FIGS. 1B & 1F) of central trigeminal neurons. […] In the same neurons, naratriptan and MRS5980 had no effect on normal cutaneous facial noxious and innocuous somatosensory responses. Amitriptyline, however did affect this normal somatosensory processing. * P<0.05 vs. baseline.

| SMILES | inhibiting neuronal responses (compared with naratriptan and amitriptyline) (dural-responsive trigeminal neurons) | normal cutaneous facial noxious and innocuous somatosensory responses | ongoing neuronal firing of central trigeminal neurons | response to pain-producing stimulation of the dura mater of central trigeminal neurons |
| --- | --- | --- | --- | --- |
| CNC(=O)[C@@]12C[C@@H]1[C@@H](n1cnc3c(NC)nc(C#Cc4ccc(Cl)s4)nc31)[C@H](O)[C@@H]2O [MRS5980] | equally efficacious | no effect | – | – |
| CNS(=O)(=O)CCc1ccc2[nH]cc(C3CCN(C)CC3)c2c1 [naratriptan] | – | no effect | inhibited | inhibited |
| CN(C)CCC=C1c2ccccc2CCc2ccccc21 [amitriptyline] | – | did affect | inhibited | inhibited |

Source: US12397010B2, “Treatment of chronic headaches” (Saint Louis University, priority 2019, dated 2025)
